Broadly, the fraction unbound is free concentration divided by total concentration. A higher fraction unbound goes with much free substance.

Where only a bound is given, the exact number is not on record here.

System in the first data set: not listed separately
Kind of data set: Drug level in rat cerebrospinal fluid at 10 mg/kg, po after 1 hr.
Regarding `O=C(O)c1cn(Cc2ccc(-c3cccnc3)cc2)c2cccc(F)c2c1=O`, the concentration at 1 h turned out to be 24 nM.

System in the next data set: not listed separately
Kind of data set: Plasma protein binding in rat serum by equilibrium dialysis method. On the technique in general: In equilibrium dialysis free small molecules cross a membrane that holds back macromolecules.
`O=C(O)c1cn(Cc2ccc(-c3cccnc3)cc2)c2cccc(F)c2c1=O` gave a fraction unbound of 0.051. The same measure, in the same setting: under `O=C(O)c1cn(Cc2ccc(-c3cccc(CO)n3)cc2)c2c(F)cccc2c1=O` stands 0.022; under `O=C(O)c1cn(Cc2ccc(-c3cccc4cccnc34)cc2)c2cccc(F)c2c1=O`, 0.015.

On to `O=C(O)c1cn(Cc2ccc(-c3cn[nH]c3)cc2F)c2cccc(F)c2c1=O`, for which the fraction unbound is 0.02.

The target in another data set is T1, Muscarinic acetylcholine receptor M1 (Homo sapiens) (UniProt P11229).
T1 sequence (whole entry): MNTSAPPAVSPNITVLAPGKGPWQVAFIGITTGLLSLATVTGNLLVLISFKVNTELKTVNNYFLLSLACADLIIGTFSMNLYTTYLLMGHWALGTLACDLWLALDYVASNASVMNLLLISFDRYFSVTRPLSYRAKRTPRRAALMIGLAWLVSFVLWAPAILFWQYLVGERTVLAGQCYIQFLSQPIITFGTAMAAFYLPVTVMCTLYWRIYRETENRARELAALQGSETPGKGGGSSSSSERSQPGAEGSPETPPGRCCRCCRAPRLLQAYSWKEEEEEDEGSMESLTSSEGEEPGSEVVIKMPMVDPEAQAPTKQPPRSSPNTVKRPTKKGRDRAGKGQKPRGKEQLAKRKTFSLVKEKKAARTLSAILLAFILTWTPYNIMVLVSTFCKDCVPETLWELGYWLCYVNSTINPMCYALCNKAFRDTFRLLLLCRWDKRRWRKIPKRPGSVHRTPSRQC
Kind of data set: Allosteric modulation of human muscarinic M1 receptor expressed in CHO cells assessed as effect on acetylcholine-induced calcium mobilization by FLIPR assay. In kind it is functional, cell-based.
Regarding `CS(=O)(=O)c1ccc(Cn2cc(C(=O)O)c(=O)c3cccc(F)c32)cc1`, the IP turned out to be 13000 nM. Same read-out and setting: under `O=C(O)c1cn(Cc2ccc(Br)cc2F)c2cccc(F)c2c1=O` stands 1100 nM; under `O=C(O)c1cn(Cc2ccc(-c3cccnc3)cc2)c2cccc(F)c2c1=O`, 61 nM; under `O=C(O)c1cn(Cc2ccc(C(F)(F)F)cc2)c2cccc(F)c2c1=O`, 1500 nM. Regarding `O=C(O)c1cn(Cc2c(F)cccc2F)c2cccc(F)c2c1=O`, the IP turned out to be 1300 nM. With `O=C(O)c1cn(Cc2cccc(OC(F)(F)F)c2)c2c(F)cccc2c1=O`, the IP turned out to be 3600 nM. On the same count and under the same terms, under `O=C(O)c1cn(Cc2ccc(-c3ccccc3)cc2Cl)c2ccccc2c1=O` stands 120 nM.

Regarding `O=C(O)c1cn(CCc2ccccc2)c2ccccc2c1=O`, the IP is greater than 100000 nM. Same read-out and setting: under `COc1ccc(-c2ccc(Cn3cc(C(=O)O)c(=O)c4cccc(F)c43)cc2)cn1` stands 63 nM; under `O=C(O)c1cn(Cc2ccc(-c3ccccc3)cc2)c2c(F)cccc2c1=O`, 380 nM. Still for that read-out and setting: the figure for `Nc1cccc(-c2ccc(Cn3cc(C(=O)O)c(=O)c4cccc(F)c43)cc2)c1` is 210 nM. `O=C(O)c1cn(Cc2ccc(Br)cc2F)c2c(F)cccc2c1=O`: the IP turned out to be 1200 nM. The same measure, in the same setting: under `COc1cccc(Cn2cc(C(=O)O)c(=O)c3ccccc32)c1` stands 2800 nM.

Regarding `O=C(O)c1cn(Cc2cccc(C(F)(F)F)c2)c2c(F)ccc(F)c2c1=O`, the IP was found to be 1600 nM.

In the case of `O=C(O)c1cn(Cc2ccccc2)c2ccccc2c1=O`, the IP worked out at 1700 nM. As for `O=C(O)c1cn(Cc2c(F)cccc2F)c2c(F)ccc(F)c2c1=O`, the IP is 610 nM. Still for that read-out and setting: the figure for `O=C(O)c1cn(Cc2cccc(C(F)(F)F)c2)c2c(F)cccc2c1=O` is 2700 nM; for `O=C(O)c1cn(Cc2ccccc2C(F)(F)F)c2c(F)cccc2c1=O` it is 6900 nM; for `O=C(NC1CC1)c1ccc(-c2ccc(Cn3cc(C(=O)O)c(=O)c4cccc(F)c43)cc2)cc1` it is 110 nM.

On to `O=C(NCCO)c1cccc(-c2ccc(Cn3cc(C(=O)O)c(=O)c4cccc(F)c43)cc2)c1`, for which the IP worked out at 99 nM.

Turning to `O=C(O)c1cn(Cc2ccc(-c3cn[nH]c3)cc2F)c2ccccc2c1=O`, the IP is 56 nM. Same read-out and setting: under `Cn1cc(-c2ccc(Cn3cc(C(=O)O)c(=O)c4ccccc43)c(F)c2)cn1` stands 37 nM. Still for that read-out and setting: under `O=C(O)c1cn(Cc2ccc(OC(F)(F)F)cc2)c2c(F)ccc(F)c2c1=O` stands 1300 nM; under `COc1ncc(-c2ccc(Cn3cc(C(=O)O)c(=O)c4ccccc43)c(F)c2)cn1`, 510 nM. Still for that read-out and setting: under `Nc1ccc(-c2ccc(Cn3cc(C(=O)O)c(=O)c4cccc(F)c43)cc2)cn1` stands 130 nM.

As for `O=C(O)c1cn(C2(c3ccccc3)CC2)c2c(F)cccc2c1=O`, the IP is 22000 nM. Same read-out and setting: the figure for `O=C(O)c1cn(Cc2cccc(OC(F)(F)F)c2)c2c(F)ccc(F)c2c1=O` is 3200 nM; for `O=C(O)c1cn(Cc2ccc(-c3cccc(CO)n3)cc2)c2c(F)cccc2c1=O` it is 250 nM. Still for that read-out and setting: the figure for `O=C(O)c1cn(Cc2ccc(-c3ccccc3)cc2)c2cccc(F)c2c1=O` is 84 nM; for `O=C(O)c1cn(Cc2ccc(-c3ccccc3)cc2)c2ccccc2c1=O` it is 210 nM.

Regarding `COc1ccc(Cn2cc(C(=O)O)c(=O)c3cccc(F)c32)cc1`, the IP amounted to 1100 nM. For `O=C(O)c1cn(Cc2ccc(-c3cccc4cccnc34)cc2)c2cccc(F)c2c1=O`, the IP was found to be 190 nM.

As for `NC(=O)c1cccc(Cn2cc(C(=O)O)c(=O)c3cccc(F)c32)c1`, the IP stood at 3400 nM. The same measure, in the same setting: under `O=C(O)c1cn(Cc2c(F)cccc2F)c2c(F)cccc2c1=O` stands 1000 nM; under `CNc1ccc(-c2ccc(Cn3cc(C(=O)O)c(=O)c4cccc(F)c43)cc2)cn1`, 48 nM. The same measure, in the same setting: under `O=C(O)c1cn(Cc2ccc(-c3cccc4[nH]ccc34)cc2)c2c(F)cccc2c1=O` stands 76 nM.

As to `O=C(O)c1cn(Cc2ccc(-c3ccccc3)cc2F)c2ccccc2c1=O`, the IP is 50 nM. Still for that read-out and setting: the figure for `CN(C)c1cccc(-c2ccc(Cn3cc(C(=O)O)c(=O)c4cccc(F)c43)cc2)c1` is 94 nM; for `O=C(O)c1cn(Cc2ccc(Br)cc2F)c2c(F)ccc(F)c2c1=O` it is 860 nM; for `O=C(O)c1cn(Cc2ccccc2C(F)(F)F)c2c(F)ccc(F)c2c1=O` it is 2300 nM. On the same count and under the same terms, under `COc1cccc(Cn2cc(C(=O)O)c(=O)c3c(F)cccc32)c1` stands 2100 nM; under `CS(=O)(=O)c1ccc(Cn2cc(C(=O)O)c(=O)c3c(F)ccc(F)c32)cc1`, 16000 nM. The same measure, in the same setting: under `O=C(O)c1cn(Cc2ccc(-c3cncnc3)cc2)c2c(F)cccc2c1=O` stands 830 nM; under `O=C(O)c1cn(Cc2ccc(C(F)(F)F)cc2)c2c(F)ccc(F)c2c1=O`, 760 nM. For `O=C(O)c1cn(Cc2ccccc2C(F)(F)F)c2ccccc2c1=O`, the IP stood at 4300 nM.

Take `NC(=O)c1cccc(Cn2cc(C(=O)O)c(=O)c3ccccc32)c1`: the IP is 4300 nM.

As to `CN1CCN(c2ccc(-c3ccc(Cn4cc(C(=O)O)c(=O)c5cccc(F)c54)cc3)cn2)CC1`, the IP was determined as 51 nM. Still for that read-out and setting: under `O=C(O)c1cn(Cc2ccc(OC(F)(F)F)cc2)c2cccc(F)c2c1=O` stands 2800 nM; under `COc1cccc(Cn2cc(C(=O)O)c(=O)c3c(F)ccc(F)c32)c1`, 4200 nM; under `O=C(O)c1cn(Cc2ccc(OC(F)(F)F)cc2)c2ccccc2c1=O`, 1800 nM. On the same count and under the same terms, the figure for `O=C(O)c1cn(Cc2cccc(OC(F)(F)F)c2)c2ccccc2c1=O` is 4100 nM; for `O=C(O)c1cn(Cc2cccc(C(F)(F)F)c2)c2ccccc2c1=O` it is 7200 nM; for `COc1cccc(Cn2cc(C(=O)O)c(=O)c3cccc(F)c32)c1` it is 2700 nM. The same measure, in the same setting: the figure for `N#Cc1ccccc1-c1ccc(Cn2cc(C(=O)O)c(=O)c3cccc(F)c32)cc1` is 540 nM; for `O=C(O)c1cn(Cc2ccc(OC(F)(F)F)cc2)c2c(F)cccc2c1=O` it is 2100 nM; for `O=C(O)c1cn(Cc2cccc(OC(F)(F)F)c2)c2cccc(F)c2c1=O` it is 5900 nM. Regarding `O=C(O)c1cn(Cc2ccc(C3CC3)cc2)c2c(F)cccc2c1=O`, the IP was determined as 1200 nM. Still for that read-out and setting: under `O=C(O)c1cn(Cc2ccc(-c3ccncc3)cc2)c2c(F)cccc2c1=O` stands 100 nM; under `O=C(O)c1cn(C2(c3ccccc3)CC2)c2ccccc2c1=O`, 13000 nM; under `CN(C)Cc1cccc(-c2ccc(Cn3cc(C(=O)O)c(=O)c4cccc(F)c43)cc2)c1`, 220 nM. Same read-out and setting: under `O=C(O)c1cn(Cc2ccccc2)c2c(F)ccc(F)c2c1=O` stands 3000 nM; under `CS(=O)(=O)c1ccc(Cn2cc(C(=O)O)c(=O)c3ccccc32)cc1`, 18000 nM; under `O=C(O)c1cn(CCc2ccccc2)c2c(F)cccc2c1=O`, 24000 nM.

Turning to `CN(C)c1cc(-c2ccc(Cn3cc(C(=O)O)c(=O)c4cccc(F)c43)cc2)ccn1`, the IP worked out at 45 nM. Still for that read-out and setting: the figure for `O=C(O)c1cn(Cc2ccc(C(F)(F)F)cc2)c2c(F)cccc2c1=O` is 980 nM; for `COc1ccc(Cn2cc(C(=O)O)c(=O)c3c(F)cccc32)cc1` it is 2000 nM. Turning to `O=C(O)c1cn(Cc2ccc(-c3cn[nH]c3)cc2F)c2cccc(F)c2c1=O`, the IP stood at 41 nM. Same read-out and setting: the figure for `N#Cc1ccccc1-c1ccc(Cn2cc(C(=O)O)c(=O)c3c(F)cccc32)cc1` is 400 nM. The same measure, in the same setting: the figure for `O=C(O)c1cn(Cc2ccccc2)c2c(F)cccc2c1=O` is 4000 nM.

Take `O=C(O)c1cn(Cc2ccc(C3CC3)cc2)c2cccc(F)c2c1=O`: the IP came out at 830 nM. The same measure, in the same setting: the figure for `O=C(O)c1cn(Cc2ccc(-c3ccccc3)cc2)c2c(F)ccc(F)c2c1=O` is 270 nM.

System in a further data set: not listed separately
Kind of data set: Plasma protein binding in human serum by equilibrium dialysis method.
The molecule `O=C(O)c1cn(Cc2ccc(-c3cccnc3)cc2)c2cccc(F)c2c1=O` gave a fraction unbound of 0.055. On to `O=C(O)c1cn(Cc2ccc(-c3cccc(CO)n3)cc2)c2c(F)cccc2c1=O`, for which the fraction unbound was 0.058. The same measure, in the same setting: the figure for `O=C(O)c1cn(Cc2ccc(-c3cn[nH]c3)cc2F)c2cccc(F)c2c1=O` is 0.044.

(Values after ChEMBL document CHEMBL1153216, “Parallel synthesis of N-biaryl quinolone carboxylic acids as selective M(1) positive allosteric modulators” (Bioorg Med Chem Lett, 2010).)
